Results on two compounds are retold here after patent publication US20250057801A1, “Methods for Treating Traumatic Brain Injury” (The Government of the United States, as Represented by the …, priority 2023, published 2025).

The subject of data set [1] is penetrating brain injury (PTBI). As to the kind of experiment: Mitochondrial bioenergetics (Seahorse XFe96 Flux Analyzer) in injury core mitochondria after PTBI. In kind it is in vivo, male Sprague-Dawley rats. To be noted: compared to VEH. Here is the method: (§1) Three experimental groups (N=4-8 male Sprague-Dawley rats/group) were studied. The first group was a sham group in which there was no penetrating brain injury and no treatment with resveratrol triacetate (RES). The second group was subject to a penetrating brain injury (via probe insertion and balloon inflation) and treated with dimethyl sulfoxide, DMSO (vehicle, VEH) and dosed at 15 minutes and 6 hours after injury and then once daily. The third group was subject to a penetrating brain injury and treated with RES and dosed at 15 minutes and six hours after injury and then once daily.
(§2) After 60 minutes of the last dosing at either 24 hours or 3 days post-injury, fresh viable mitochondria were isolated from the injury core of rats' brain. Homogenate fractions were collected for a glutathione assay.
(§3) Mitochondrial bioenergetics parameters were measured using a high-throughput procedure of the Seahorse XFe96 Flux Analyzer. The glutathione content was measured using a 5,5′-dithiobis-(2-nitrobenzoic acid) (DTNB) cycling method/assay. Antioxidant and oxidative stress were measured by a Western blot (WB) analysis.
(§4) Graphs and statistical analysis were performed using GraphPad Prism program. Data are presented as mean±SEM (standard error of means). ANOVA with Fisher post-hoc test was used to evaluate significant difference at * p<0.05 vs. Sham; $ p<0.05 vs. Vehicle (N=4-8 animals/group).

Data set [2] shares this test system. As to the kind of experiment: Western blot of antioxidant, oxidative stress, membrane integrity and apoptosis markers after PTBI. In kind it is in vivo, male Sprague-Dawley rats. As for the experimental part:
as §1, §2, §3, §4
(In general: A western blot detects proteins with antibodies after separation by electrophoresis.)

Data set [3] shares this test system. The data set can be described thus: Total glutathione content (DTNB cycling assay) in brain homogenate after PTBI. In kind it is in vivo, male Sprague-Dawley rats. Conditions: 24 hours post-PTBI. Here is the method:
as §1, §2, §3, §4

For data set [4] the following is noted: in vivo; cited from earlier work.
For data set [5] the following is noted: cited from earlier work.

Regarding `CC(=O)Oc1ccc(/C=C/c2cc(OC(C)=O)cc(OC(C)=O)c2)cc1` [RES, 3′,5′,4′-tri-o-acetyl resveratrol], the “bioenergetics in injured core mitochondria, as measured by ATP synthesis” value in data set [1] (24 hours post-PTBI) is “trend of improved bioenergetics”. Further, in data set [1] (3 days post-PTBI), the “bioenergetics in injured core mitochondria” value was “non-significant trend of bioenergetics improvement”. In data set [2] (24 hours post-PTBI), the “Cytochrome C (CYT C) expression compared to VEH” value is listed as “+105%”, the “catalase (CAT) expression compared to VEH” value is −62%, the “glyceraldehyde 3-phosphate dehydrogenase (GAPDH) expression compared to VEH” value was −16.5% and the “lipid peroxidation marker 4-hydroxynonenal (4-HNE) adduct formation compared to VEH” value is “non-significant improvement”. Further, in data set [2] (24 hours post-PTBI), the “superoxide dismutase (SOD) expression compared to VEH” value is “+42%” and the “thioredoxin (TRX) expression compared to VEH” value is listed as “+38%”. Moreover, in data set [2] (3 days post-PTBI), the “CAT expression compared to VEH” value is given as −30%, the “CYT C expression compared to VEH” value was “+64%”, the “SOD expression compared to VEH” value is listed as “+90%” and the “anti-apoptotic protein Bcl-2 expression compared to VEH” value is reported as “+104%”. In data set [2] (3 days post-PTBI), the “voltage-dependent anion channels (VDAC) expression compared to VEH” value was “+47%”. In addition, the “total glutathione (GSH) content” value in data set [3] was “reversed PTBI-induced downregulation of total glutathione (GSH) content”.
As to `Oc1ccc(C=Cc2cc(O)cc(O)c2)cc1` [Resveratrol], in data set [4], the half-life is 8 to 14 min. The water solubility result in data set [5] is “low water solubility”.

By half-life is commonly meant the time in which the quantity being followed falls by half.
